# Values quoted from earlier work as cited in patent publication US7439256B2, “(Arylamidoaryl) cyanoguanidine compounds” (priority 2004, dated 2008).
# Structures can show the parent of a compound that is named as a salt.
# Tested on: MO7e human leukemia cells
smiles,measurement,setting,value
"Cc1ccc(NC(=O)c2ccc(CN3CCN(C)CC3)cc2)cc1Nc1nccc(-c2cccnc2)n1 [Gleevec, imatinib mesylate]",GM-CSF stimulated growth of MO7e human leukemia cells,GM-CSF stimulated,not affected
same,Kit ligand-stimulated growth of MO7e human leukemia cells,Kit ligand-stimulated,inhibited
same,apoptosis in MO7e human leukemia cells,Kit ligand-stimulated conditions,induces apoptosis
